# Measured values taken from US6518243B1, “Desleucyl glycopeptide antibiotics and methods of making same” (Trustees of Princeton University, priority 1999, dated 2003).
# Key:
# [1] = system: E. faecalis (CL 4877); assay: Zone of inhibition screen, 96 well agar array format; assay type: cell-based; set-up: scale not given here; conditions: zone of inhibition relative to 1 mg/ml stock solution of p-chlorobiphenylvancomycin
# Procedure, shortened: (§1)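 Agar-array screen, 96-well; single compounds vs. strain panel (panel also incl. E. faecium ATCC 49624); antibacterial activity scored.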
# [2] = system: S. aureus (ATCC 29213); assay: as above; assay type: cell-based; set-up: scale not given here; conditions: zone of inhibition relative to 1 mg/ml stock solution of p-chlorobiphenylvancomycin
# Procedure, shortened: as §1
# [3] = system: S. epidermidis (ATCC 12228); assay: as above; assay type: cell-based; set-up: scale not given here; conditions: zone of inhibition relative to 1 mg/ml stock solution of p-chlorobiphenylvancomycin
# Procedure, shortened: as §1
# [4] = system: E. Faecalis CL 4877; assay: MIC determination in BHI media, OD600; assay type: cell-based; conditions: BHI + 0.1% casamino acids, 18 hours at 37° C., ≧90% OD600 inhibition
# Procedure, shortened: (§2)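 Inoculum ~5×10^5 CFU/ml from log-phase culture; compounds in DMSO, serial dilution; 18 h, 37° C; plate read for growth, MIC called per concentration.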
# [5] = system: E. faecium CL 4931; assay: MIC determination in BHI media, OD600; assay type: cell-based; conditions: BHI + 0.1% casamino acids, 18 hours at 37° C., ≧90% OD600 inhibition
# Procedure, shortened: as §2
# [6] = system: E. faceium (ATCC 49624); assay: Zone of inhibition screen, 96 well agar array format;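 note: score 3 means fourfold and score 4 sixteenfold the reference zone size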; assay type: cell-based, E. faecium; conditions: zone of inhibition relative to 1 mg/ml stock solution of p-chlorobiphenylvancomycin
# Procedure, shortened: as §1
# [7] = system: E. faecalis ATCC 29212; assay: MIC determination in BHI media, OD600; assay type: cell-based; conditions: BHI + 0.1% casamino acids, 18 hours at 37° C., ≧90% OD600 inhibition
# Procedure, shortened: as §2
# [8] = system: E. faecium ATCC 49624; assay: MIC determination in BHI media, OD600; assay type: cell-based; conditions: BHI + 0.1% casamino acids, 18 hours at 37° C., ≧90% OD600 inhibition
# Procedure, shortened: as §2
# [9] = system: S aureus ATCC 29213; assay: MIC determination in BHI media, OD600; assay type: cell-based; conditions: BHI + 0.1% casamino acids, 18 hours at 37° C., ≧90% OD600 inhibition
# Procedure, shortened: as §2
# [10] = system: S. Aureus ATCC 33591; assay: MIC determination in BHI media, OD600; assay type: cell-based; conditions: BHI + 0.1% casamino acids, 18 hours at 37° C., ≧90% OD600 inhibition
# Procedure, shortened: as §2
SMILES,"zone score, E. faecalis CL 4877 [1]","zone score, S. aureus ATCC 29213 [2]","zone score, S. epidermidis ATCC 12228 [3]",MIC E. faecalis CL 4877 [4],MIC E. faecium CL 4931 [5],"zone score, E. faecium ATCC 49624 [6]",MIC E. faecalis ATCC 29212 [7],MIC E. faecium ATCC 49624 [8],MIC S. aureus ATCC 29213 [9],MIC S. aureus ATCC 33591 [10]
C[C@H](O)C(=O)N[C@H]1C(=O)N[C@@H](CC(N)=O)C(=O)N[C@H]2C(=O)N[C@H]3C(=O)N[C@H](C(=O)N[C@@H](C(=O)O)c4cc(O)cc(O)c4-c4cc3ccc4O)[C@H](O)c3ccc(c(Cl)c3)Oc3cc2cc(c3O[C@@H]2O[C@H](CO)[C@@H](O)[C@H](O)[C@H]2O[C@@H]2C[C@@](C)(NCc3ccc(-c4ccc(Cl)cc4)cc3)[C@@H](O)[C@@H](C)O2)Oc2ccc(cc2Cl)[C@H]1O [Compound 21],2,2,2,25 µg/mL,25 µg/mL,–,–,–,–,–
CSCCC(N)C(=O)NC1C(=O)NC(CC(N)=O)C(=O)NC2C(=O)NC3C(=O)NC(C(=O)NC(C(=O)O)c4cc(O)cc(O)c4-c4cc3ccc4O)C(O)c3ccc(c(Cl)c3)Oc3cc2cc(c3OC2OC(CO)C(O)C(O)C2OC2CC(C)(NCc3ccc(-c4ccc(Cl)cc4)cc3)C(O)C(C)O2)Oc2ccc(cc2Cl)C1O (stereo not drawn) [Compound 41],2,–,–,–,–,2,0.78 µg/mL,0.25 µg/mL,0.39 µg/mL,0.39 µg/mL
CC1OC(OC2C(Oc3c4cc5cc3Oc3ccc(cc3Cl)C(O)C3NC(=O)C(NC(=O)C5NC(=O)C(CC(N)=O)NC(=O)C(NC(=O)C(N)CCCNC(=O)c5cnccn5)C(O)c5ccc(c(Cl)c5)O4)c4ccc(O)c(c4)-c4c(O)cc(O)cc4C(C(=O)O)NC3=O)OC(CO)C(O)C2O)CC(C)(NCc2ccc(-c3ccc(Cl)cc3)cc2)C1O (stereo not drawn) [Compound 83],–,2,–,–,25 µg/mL,2,0.78 µg/mL,0.25 µg/mL,0.39 µg/mL,0.78 µg/mL
CC1OC(OC2C(Oc3c4cc5cc3Oc3ccc(cc3Cl)C(O)C3NC(=O)C(NC(=O)C5NC(=O)C(CC(N)=O)NC(=O)C(NC(=O)C(N)CO)C(O)c5ccc(c(Cl)c5)O4)c4ccc(O)c(c4)-c4c(O)cc(O)cc4C(C(=O)O)NC3=O)OC(CO)C(O)C2O)CC(C)(NCc2ccc(-c3ccc(Cl)cc3)cc2)C1O (stereo not drawn) [Compound 88],2,2,2,25 µg/mL,–,2,–,0.78 µg/mL,0.78 µg/mL,–
CC1OC(OC2C(Oc3c4cc5cc3Oc3ccc(cc3Cl)C(O)C3NC(=O)C(NC(=O)C5NC(=O)C(CC(N)=O)NC(=O)C(NC(=O)CNC(=O)CNC(=O)c5ccc([N+](=O)[O-])cc5)C(O)c5ccc(c(Cl)c5)O4)c4ccc(O)c(c4)-c4c(O)cc(O)cc4C(C(=O)O)NC3=O)OC(CO)C(O)C2O)CC(C)(NCc2ccc(-c3ccc(Cl)cc3)cc2)C1O (stereo not drawn) [Compound 108],–,2,–,> 25 µg/mL,> 25 µg/mL,–,–,–,0.78 µg/mL,0.78 µg/mL
CC1OC(OC2C(Oc3c4cc5cc3Oc3ccc(cc3Cl)C(O)C3NC(=O)C(NC(=O)C5NC(=O)C(CC(N)=O)NC(=O)C(NC(=O)C(N)CSC(C)(C)C)C(O)c5ccc(c(Cl)c5)O4)c4ccc(O)c(c4)-c4c(O)cc(O)cc4C(C(=O)O)NC3=O)OC(CO)C(O)C2O)CC(C)(NCc2ccc(-c3ccc(Cl)cc3)cc2)C1O (stereo not drawn) [Compound 333],–,–,–,25 µg/mL,25 µg/mL,–,–,–,–,–
CC1OC(OC2C(Oc3c4cc5cc3Oc3ccc(cc3Cl)C(O)C3NC(=O)C(NC(=O)C5NC(=O)C(CC(N)=O)NC(=O)C(NC(=O)C(N)CSC(C)(C)C)C(O)c5ccc(c(Cl)c5)O4)c4ccc(O)c(c4)-c4c(O)cc(O)cc4C(C(=O)O)NC3=O)OC(CO)C(O)C2O)CC(C)(NCc2ccc(-c3ccc(Cl)cc3)cc2)C1O (stereo not drawn) [Compound 334],–,–,–,–,25 µg/mL,–,0.78 µg/mL,0.12 µg/mL,0.25 µg/mL,0.25 µg/mL
CC1OC(OC2C(Oc3c4cc5cc3Oc3ccc(cc3Cl)C(O)C3NC(=O)C(NC(=O)C5NC(=O)C(CC(N)=O)NC(=O)C(NC(=O)C(N)COCc5ccccc5)C(O)c5ccc(c(Cl)c5)O4)c4ccc(O)c(c4)-c4c(O)cc(O)cc4C(C(=O)O)NC3=O)OC(CO)C(O)C2O)CC(C)(NCc2ccc(-c3ccc(Cl)cc3)cc2)C1O (stereo not drawn) [Compound 338],–,–,–,25 µg/mL,–,–,–,0.25 µg/mL,–,0.39 µg/mL
CNC(C(=O)NC1C(=O)NC(CC(N)=O)C(=O)NC2C(=O)NC3C(=O)NC(C(=O)NC(C(=O)O)c4cc(O)cc(O)c4-c4cc3ccc4O)C(O)c3ccc(c(Cl)c3)Oc3cc2cc(c3OC2OC(CO)C(O)C(O)C2OC2CC(C)(NCc3ccc(-c4ccc(Cl)cc4)cc3)C(O)C(C)O2)Oc2ccc(cc2Cl)C1O)C(C)C (stereo not drawn) [Compound 340],–,–,–,25 µg/mL,–,–,–,0.39 µg/mL,0.39 µg/mL,0.39 µg/mL
CCCC(N)C(=O)NC1C(=O)NC(CC(N)=O)C(=O)NC2C(=O)NC3C(=O)NC(C(=O)NC(C(=O)O)c4cc(O)cc(O)c4-c4cc3ccc4O)C(O)c3ccc(c(Cl)c3)Oc3cc2cc(c3OC2OC(CO)C(O)C(O)C2OC2CC(C)(NCc3ccc(-c4ccc(Cl)cc4)cc3)C(O)C(C)O2)Oc2ccc(cc2Cl)C1O (stereo not drawn) [Compound 341],–,–,–,25 µg/mL,–,–,–,0.78 µg/mL,0.78 µg/mL,0.78 µg/mL
CN[C@H](CC(C)C)C(=O)N[C@H]1C(=O)N[C@@H](CC(N)=O)C(=O)N[C@H]2C(=O)N[C@H]3C(=O)N[C@H](C(=O)N[C@@H](C(=O)O)c4cc(O)cc(O)c4-c4cc3ccc4O)[C@H](O)c3ccc(c(Cl)c3)Oc3cc2cc(c3O[C@@H]2O[C@H](CI)[C@@H](O)[C@H](O)[C@H]2O[C@@H]2C[C@@](C)(NCc3ccc(-c4ccc(Cl)cc4)cc3)[C@@H](O)[C@@H](C)O2)Oc2ccc(cc2Cl)[C@H]1O [Compound 519],–,–,–,> 25 µg/mL,> 25 µg/mL,–,–,0.78 µg/mL,–,–
CNC(COC(C)(C)C)C(=O)NC1C(=O)NC(CC(N)=O)C(=O)NC2C(=O)NC3C(=O)NC(C(=O)NC(C(=O)O)c4cc(O)cc(O)c4-c4cc3ccc4O)C(O)c3ccc(c(Cl)c3)Oc3cc2cc(c3OC2OC(CO)C(O)C(O)C2OC2CC(C)(NCc3ccc(-c4ccc(Cl)cc4)cc3)C(O)C(C)O2)Oc2ccc(cc2Cl)C1O (stereo not drawn) [Compound 526],–,–,–,–,25 µg/mL,–,0.78 µg/mL,0.25 µg/mL,0.39 µg/mL,0.39 µg/mL
CC(C)OCC(N)C(=O)NC1C(=O)NC(CC(N)=O)C(=O)NC2C(=O)NC3C(=O)NC(C(=O)NC(C(=O)O)c4cc(O)cc(O)c4-c4cc3ccc4O)C(O)c3ccc(c(Cl)c3)Oc3cc2cc(c3OC2OC(CO)C(O)C(O)C2OC2CC(C)(NCc3ccc(-c4ccc(Cl)cc4)cc3)C(O)C(C)O2)Oc2ccc(cc2Cl)C1O (stereo not drawn) [Compound 528],–,–,–,–,25 µg/mL,–,0.78 µg/mL,0.12 µg/mL,0.25 µg/mL,0.25 µg/mL
CC(C)OCC(N)C(=O)NC1C(=O)NC(CC(N)=O)C(=O)NC2C(=O)NC3C(=O)NC(C(=O)NC(C(=O)O)c4cc(O)cc(O)c4-c4cc3ccc4O)C(O)c3ccc(c(Cl)c3)Oc3cc2cc(c3OC2OC(CO)C(O)C(O)C2OC2CC(C)(NCc3ccc(-c4ccc(Cl)cc4)cc3)C(O)C(C)O2)Oc2ccc(cc2Cl)C1O (stereo not drawn) [Compound 529],–,–,–,–,25 µg/mL,–,0.78 µg/mL,0.12 µg/mL,0.25 µg/mL,0.25 µg/mL
CC1OC(OC2C(Oc3c4cc5cc3Oc3ccc(cc3Cl)C(O)C3NC(=O)C(NC(=O)C5NC(=O)C(CC(N)=O)NC(=O)C(NC(=O)C(N)Cc5c[nH]cn5)C(O)c5ccc(c(Cl)c5)O4)c4ccc(O)c(c4)-c4c(O)cc(O)cc4C(C(=O)O)NC3=O)OC(CO)C(O)C2O)CC(C)(NCc2ccc(-c3ccc(Cl)cc3)cc2)C1O (stereo not drawn) [Compound 554],–,–,–,25 µg/mL,–,–,–,0.39 µg/mL,–,0.78 µg/mL
CC1OC(OC2C(Oc3c4cc5cc3Oc3ccc(cc3Cl)C(O)C3NC(=O)C(NC(=O)C5NC(=O)C(CC(N)=O)NC(=O)C(NC(=O)C(N)Cc5ccc(O)c([N+](=O)[O-])c5)C(O)c5ccc(c(Cl)c5)O4)c4ccc(O)c(c4)-c4c(O)cc(O)cc4C(C(=O)O)NC3=O)OC(CO)C(O)C2O)CC(C)(NCc2ccc(-c3ccc(Cl)cc3)cc2)C1O (stereo not drawn) [Compound 557],–,–,–,25 µg/mL,25 µg/mL,–,–,0.39 µg/mL,–,–
